{"source": "patent US7825141B2", "about": "“Epothilone derivatives” (Novartis AG, priority 2004, dated 2010)", "key": {"[1]": {"system": "Human KB-31 epidermoid carcinoma cells", "assay": "Proliferation inhibition of KB-31 cells (methylene blue staining)", "type": "cell-based", "conditions": "KB-31 cell line, four days incubation with compound, repeated lines are separate determinations", "procedure": "(§1) Stock solutions of the test compound of formula I 10 mM) in DMSO are prepared and stored at −20° C. Human KB-31 and (multidrug-resistant, P-gp 170 overexpressing) KB-8511 epidermoid carcinoma cells are from Dr. M. Baker, Roswell Park Memorial Institute (Buffalo, N.Y., USA) (for description see also Akiyama et al., Somat. Cell. Mol. Genetics 11, 117-126 (1985) und Fojo A., et al., Cancer Res. 45, 3002-3007 (1985)—KB-31 und KB-851 I both are derivatives of the KB-cell line (American Type Culture Collection) and are human epidermoid carcinoma cells. KB-31 cells can be cultivated in mono-layers using calf serum (M.A. Bio-products), L-glutamine (Flow), penicillin (50 Units/ml) und streptomycin (50 μg/ml (Flow); they then grow with a doubling rate of about 22 hours, and the relative efficiency of plating them out lies at about 60%. […] The cells are incubated at 37° C. in an incubator with 5% V/V CO2 and at 80% relative atmospheric humidity in MEM Alpha-medium which contains ribonucleosides und desoxyribonucleosides (Gibco BRL), complemented with 10 IU Penicillin, 10 μg/ml Streptomycin and 5% fetal calf serum. The cells are spread in an amount of 1.5×10^3 cells/well in 96-well-microtiter plates and incubated overnight. Serial dilutions of the test compounds in culture medium are added at day 1. The plates are then incubated for an additional period of four days, after which the cells are fixed using 3.3% v/v glutaraldehyde washed with water and finally stained with 0.05% w/v methylene blue. After washing again, the stain is eluted with 3% HCl and the optical density at 665 nm is measured with a SpectraMax 340 (Molecular Devices, Sunnyvale, Calif.). IC50-values are determined by mathematically fitting the data to curves using the SoftPro2.0 program (Molecular Devices, Sunnyvale, Calif.) and the formula […]/[(OD control)−(OD start)]×100.\n(§2) The IC50 is defined as the concentration of a test compound at the end of the incubation period that leads to 50% of the number of cells in comparison to controls without test compound (concentration at halfmaximal inhibition of cell growth).\n(§3) Proliferation inhibition (IC50) of epothilone derivatives (Examples 1-16) towards KB-31 and KB-8511 cell lines. Method as described above."}, "[2]": {"system": "(multidrug-resistant, P-gp 170 overexpressing) KB-8511 epidermoid carcinoma cells", "assay": "Proliferation inhibition of KB-8511 cells (methylene blue staining)", "type": "cell-based, human", "conditions": "KB-8511 cell line (multidrug-resistant, P-gp 170 overexpressing), four days incubation with compound, repeated lines are separate determinations", "procedure": "as §1, §2, §3"}}, "note": "pIC50: −log10 of the molar value. “And” between values parts separate entries of the source, which are not always exact repeats. Identical values can stand only once.", "data": [{"compound": "Cc1nc2cc([C@@H]3C[C@@H]4C[C@H]4CCC[C@H](C)[C@H](O)[C@@H](C)C(=O)C(C)(C)[C@@H](O)CC(=O)O3)ccc2n1C", "note": "[Example 16, (1S,3S,7S,10R,11S,12S,16R)-3-(1,2-Dimethyl-1H-benzoimidazol-5-yl)-7,11-dihydroxy-8,8,10,12-tetramethyl-4-oxa-bicyclo[14.1.0]heptadecane-5,9-dione]", "values": [{"measurement": "pIC50", "setting": "[1]; Homo sapiens, KB 3-1, 96 h", "result": 9.83}, {"measurement": "pIC50", "setting": "[2]; Homo sapiens, 96 h", "result": 9.96}]}, {"compound": "Cc1nc2cc([C@@H]3C[C@@H]4O[C@H]4CCC[C@H](C)[C@H](O)[C@@H](C)C(=O)C(C)(C)[C@@H](O)CC(=O)O3)ccc2n1C", "note": "[Example 12, (1S,3S,7S,10R,11S,12S,16S)-3-(1,2-Dimethyl-1H-benzoimidazol-5-yl)-7,11-dihydroxy-8,8,10,12-tetramethyl-4,17-dioxa-bicyclo[14.1.0]heptadecane-5,9-dione]", "values": [{"measurement": "pIC50", "setting": "[1]; Homo sapiens, KB 3-1, 96 h", "result": 9.57}, {"measurement": "pIC50", "setting": "[1]", "result": "9.62 and 9.64"}, {"measurement": "pIC50", "setting": "[2]; Homo sapiens, 96 h", "result": 8.84}, {"measurement": "pIC50", "setting": "[2]", "result": "8.78 and 9.02"}]}, {"compound": "C/C(=C\\c1csc(C)n1)[C@@H]1C[C@@H]2O[C@]2(C)CCC[C@H](C)[C@H](O)[C@@H](C)C(=O)C(C)(C)CCC(=O)O1", "note": "[Example 2, (1S,3S,10R,11S,12S,16R)-11-Hydroxy-8,8,10,12,16-pentamethyl-3-[(E)-1-methyl-2-(2-methyl-thiazol-4-yl)-vinyl]-4,17-dioxa-bicyclo[14.1.0]heptadecane-5,9-dione]", "values": [{"measurement": "pIC50", "setting": "[1]; Homo sapiens, KB 3-1, 96 h", "result": 8.29}, {"measurement": "pIC50", "setting": "[2]; Homo sapiens, 96 h", "result": 8.66}]}, {"compound": "Cc1nc2cc([C@@H]3C[C@@H]4C[C@@H]4CCC[C@H](C)[C@H](O)[C@@H](C)C(=O)C(C)(C)[C@@H](O)CC(=O)O3)ccc2n1C", "note": "(stereo in doubt) [Example 15, 3-(1,2-Dimethyl-1H-benzoimidazol-5-yl)-7,11-dihydroxy-8,8,10,12-tetramethyl-4-oxa-bicyclo[14.1.0]heptadecane-5,9-dione]", "values": [{"measurement": "pIC50", "setting": "[1]; Homo sapiens, KB 3-1, 96 h", "result": 9.33}, {"measurement": "pIC50", "setting": "[2]; Homo sapiens, 96 h", "result": 9.00}]}, {"compound": "Cc1nc2cc([C@@H]3C[C@@H]4O[C@@H]4CCC[C@H](C)[C@H](O)[C@@H](C)C(=O)C(C)(C)CCC(=O)O3)ccc2n1C", "note": "[Example 4, 3-(1,2-Dimethyl-1H-benzoimidazol-5-yl)-11-hydroxy-8,8,10,12-tetramethyl-4,17-dioxa-bicyclo[14.1.0]heptadecane-5,9-dione]", "values": [{"measurement": "pIC50", "setting": "[1]; Homo sapiens, KB 3-1, 96 h", "result": 8.18}, {"measurement": "pIC50", "setting": "[1]", "result": "8.10 and 8.12"}, {"measurement": "pIC50", "setting": "[2]; Homo sapiens, 96 h", "result": 7.44}, {"measurement": "pIC50", "setting": "[2]", "result": "7.41 and 7.43"}]}, {"compound": "Cc1nc2cc([C@@H]3C/C=C/CCC[C@H](C)[C@H](O)[C@@H](C)C(=O)C(C)(C)/C=C/C(=O)O3)ccc2n1C", "note": "[Example 13, (3E,13E)-(7R,8S,9S,16S)-16-(1,2-Dimethyl-1H-benzoimidazol-5-yl)-8-hydroxy-5,5,7,9-tetramethyl-oxacyclohexadeca-3,13-diene-2,6-dione]", "values": [{"measurement": "pIC50", "setting": "[1]; Homo sapiens, KB 3-1, 96 h", "result": 6.84}, {"measurement": "pIC50", "setting": "[1]", "result": "6.86 and 6.82"}, {"measurement": "pIC50", "setting": "[2]; Homo sapiens, 96 h", "result": 7.13}, {"measurement": "pIC50", "setting": "[2]", "result": "7.16 and 7.13"}]}, {"compound": "Cc1nc2cc([C@@H]3C/C=C/CCC[C@H](C)[C@H](O)[C@@H](C)C(=O)C(C)(C)[C@@H](O)CC(=O)O3)ccc2n1C", "note": "[Example 11, (E)-(4S,7R,8S,9S,16S)-16-(1,2-Dimethyl-1H-benzoimidazol-5-yl)-4,8-dihydroxy-5,5,7,9-tetramethyl-oxacyclohexadec-13-ene-2,6-dione]", "values": [{"measurement": "pIC50", "setting": "[2]; Homo sapiens, 96 h", "result": 7.60}, {"measurement": "pIC50", "setting": "[2]", "result": "7.44 and 7.43"}]}, {"compound": "Cc1nc2cc([C@@H]3C/C=C/CCC[C@H](C)[C@H](O)[C@@H](C)C(=O)C(C)(C)CCC(=O)O3)ccc2n1C", "note": "[Example 7, (E)-(7R,8S,9S,16S)-16-(1,2-Dimethyl-1H-benzoimidazol-5-yl)-8-hydroxy-5,5,7,9-tetramethyl-oxacyclohexadec-13-ene-2,6-dione]", "values": [{"measurement": "pIC50", "setting": "[1]; Homo sapiens, KB 3-1, 96 h", "result": 7.41}, {"measurement": "pIC50", "setting": "[1]", "result": 7.38}, {"measurement": "pIC50", "setting": "[2]; Homo sapiens, 96 h", "result": 7.30}, {"measurement": "pIC50", "setting": "[2]", "result": 7.30}]}, {"compound": "C/C1=C/C[C@@H](/C(C)=C/c2csc(C)n2)OC(=O)CCC(C)(C)C(=O)[C@H](C)[C@@H](O)[C@@H](C)CCC1", "note": "[Example 1, (Z)-(7R,8S,9S,16S)-8-Hydroxy-5,5,7,9,13-pentamethyl-16-[(E)-1-methyl-2-(2-methyl-thiazol-4-yl)-vinyl]-oxacyclohexadec-13-ene-2,6-dione]", "values": [{"measurement": "pIC50", "setting": "[1]; Homo sapiens, KB 3-1, 96 h", "result": 6.97}, {"measurement": "pIC50", "setting": "[2]; Homo sapiens, 96 h", "result": 7.12}]}, {"compound": "Cc1nc2cc([C@@H]3C[C@@H]4O[C@]4(C)CCC[C@H](C)[C@H](O)[C@@H](C)C(=O)C(C)(C)CCC(=O)O3)ccc2n1C", "note": "[Example 6, (1S,3S,10R,11S,12S,16R)-3-(1,2-Dimethyl-1H-benzoimidazol-5-yl)-11-hydroxy-8,8,10,12,16-pentamethyl-4,17-dioxa-bicyclo[14.1.0]heptadecane-5,9-dione]", "values": [{"measurement": "pIC50", "setting": "[2]; Homo sapiens, 96 h", "result": "> 8.70"}, {"measurement": "pIC50", "setting": "[2]", "result": 8.79}]}, {"compound": "Cc1nc2cc([C@@H]3C/C=C\\CCC[C@H](C)[C@H](O)[C@@H](C)C(=O)C(C)(C)CCC(=O)O3)ccc2n1C", "note": "[Example 3, 16-(1,2-Dimethyl-1H-benzoimidazol-5-yl)-8-hydroxy-5,5,7,9-tetramethyl-oxacyclohexadec-13-ene-2,6-dione]", "values": [{"measurement": "pIC50", "setting": "[1]; Homo sapiens, KB 3-1, 96 h", "result": 7.26}, {"measurement": "pIC50", "setting": "[1]", "result": 7.21}, {"measurement": "pIC50", "setting": "[2]; Homo sapiens, 96 h", "result": 7.30}, {"measurement": "pIC50", "setting": "[2]", "result": 7.21}]}, {"compound": "Cc1nc2cc([C@@H]3C[C@@H]4O[C@H]4CCC[C@H](C)[C@H](O)[C@@H](C)C(=O)C(C)(C)CCC(=O)O3)ccc2n1C", "note": "[Example 8, (1S,3S,10R,11S,12S,16S)-3-(1,2-Dimethyl-1H-benzoimidazol-5-yl)-11-hydroxy-8,8,10,12-tetramethyl-4,17-dioxa-bicyclo[14.1.0]heptadecane-5,9-dione]", "values": [{"measurement": "pIC50", "setting": "[1]; Homo sapiens, KB 3-1, 96 h", "result": 8.56}, {"measurement": "pIC50", "setting": "[2]; Homo sapiens, 96 h", "result": 8.23}]}, {"compound": "Cc1nc2cc([C@@H]3C[C@@H]4O[C@H]4CCC[C@H](C)[C@H](O)[C@@H](C)C(=O)C(C)(C)/C=C/C(=O)O3)ccc2n1C", "note": "[Example 14, (E)-(1S,3S,10R,11S,12S,16S)-3-(1,2-Dimethyl-1H-benzoimidazol-5-yl)-11-hydroxy-8,8,10,12-tetramethyl-4,17-dioxa-bicyclo[14.1.0]heptadec-6-ene-5,9-dione]", "values": [{"measurement": "pIC50", "setting": "[1]; Homo sapiens, KB 3-1, 96 h", "result": 8.30}, {"measurement": "pIC50", "setting": "[1]", "result": 8.46}, {"measurement": "pIC50", "setting": "[2]; Homo sapiens, 96 h", "result": 7.91}, {"measurement": "pIC50", "setting": "[2]", "result": 8.00}]}]}
